These results are taken from US20090226500A1, “SUTURES AND ANTI-SCARRING AGENTS” (Angiotech Pharmaceuticals, Inc, priority 2006, published 2009).

Structures are written as SMILES. Where a name gives a salt, the structure may show the parent alone. Read-outs that look alike come from different tables or passages of the source.

One test concerns human fibroblasts. Kind of test: Cell proliferation of fibroblasts. Format: cell-based. The settings on record: Fibroblast, 72 hours, CYQUANT, read-out: IC50 cell proliferation of fibroblasts. As for the experimental part: Fibroblasts at 70-90% confluency are trypsinized, replated at 600 cells/well in media in 96-well plates and allowed to attachment overnight. […] Each drug concentration is tested in triplicate wells. Plates containing fibroblasts and drug substance are incubated at 37° C. for 72 hours.
To terminate the assay, the media is removed by gentle aspiration. A 1/400 dilution of CYQUANT 400×GR™ dye indicator (Molecular Probes; Eugene, Oreg.) is added to 1× Cell Lysis buffer, and 200 μL of the mixture is added to the wells of the plate. Plates are incubated at room temperature, protected from light for 3-5 minutes.

Another test concerns Smooth muscle cells. Kind of test: Proliferation of smooth muscle cells. Format: cell-based. The settings on record: read-out: IC50 proliferation of smooth muscle cells. The method, then: Smooth muscle cells at 70-90% confluency were trypsinized, replated at 600 cells/well in media in 96-well plates and allowed to attachment overnight. Paclitaxel was prepared in DMSO at a concentration of 10^−2 M and diluted 10-fold to give a range of stock concentrations (10^−8 M to 10^−2 M). […] Each drug concentration was tested in triplicate wells. Plates containing cells and paclitaxel were incubated at 37° C. for 72 hours.
To terminate the assay, the media was removed by gentle aspiration A 1/400 dilution of CYQUANT 400×GR dye indicator (Molecular Probes; Eugene, Oreg.) was added to 1× Cell Lysis buffer, and 200 μL of the mixture was added to the wells of the plate. Plates were incubated at room temperature, protected from light for 3-5 minutes.

Consider `CO[C@H]1/C=C\C=C(/C)C(=O)NC2=CC(=O)C(NCCN(C)C)=C(C[C@@H](C)C[C@H](OC)[C@H](O)[C@@H](C)/C=C(\C)[C@@H]1OC(N)=O)C2=O` [17-DMAG, 17-dimethylaminoethylamino-17-demethoxy-geldanamycin], for which the IC50 in the test with human fibroblasts was 0.1 to 10 nM; with Smooth muscle cells (72 hours, CYQUANT), 17 nM. `C/C=C(/C)C(=O)O[C@H]1C(C)=C2[C@H]([C@@H]1OC(=O)CCCCCCC)[C@@](C)(OC(C)=O)C[C@H](OC(=O)CCC)[C@@]1(O)[C@H]2OC(=O)[C@@]1(C)O` [Thapsigargin]: the IC50 in the test with human fibroblasts was 0.1 to 10 nM. For the molecule `Cn1c(=O)c2[nH]cnc2n(C)c1=O` [Theophylline], in the test with human fibroblasts, the IC50 lay in the range of 0.1 to 10 nM. Turning to `Cc1cccc(Nc2ccncc2S(=O)(=O)NC(=O)NC(C)C)c1` [Torasemide], in the test on human fibroblasts, the IC50 fell in the range of 10 to 100 nM. As to `CC(=O)Oc1cc(C(F)(F)F)ccc1C(=O)O` [Triflusal], the IC50 in the test with human fibroblasts was 10 to 100 nM. On the same count and under the same terms, as for `CC(C)[C@]12O[C@H]1[C@@H]1O[C@]13[C@]1(O[C@H]1C[C@H]1C4=C(CC[C@@]13C)C(=O)OC4)[C@@H]2O` [Triptolide], the figure is 0.1 to 10 nM; as for `Oc1ccnc(O)n1` [Uracil, 2,4-Dihydroxypyrimidine], 10 to 100 nM; as for `CC[C@]12CCCN3CCc4c(n(c5ccccc45)[C@@](O)(C(=O)OC)C1)[C@@H]32` [Vincamine], 0.1 to 10 nM.

As for `CC(=O)CC(c1ccccc1)c1c(O)c2ccccc2oc1=O` (stereo not drawn) [Warfarin, 3-(a-Acetonylbenzyl)-4-hydroxycoumarin sodium salt], the IC50 in the test with human fibroblasts lay in the range of 0.1 to 10 nM. `COc1cc(O)c2c(c1)oc(=O)c1c3cc(O)c(O)cc3oc21` [Wedelolactone]: the IC50 in the test with human fibroblasts fell in the range of 1200 to 10000 nM. In the case of `CO[C@H]1C[C@@H]2CC[C@@H](C)[C@@](O)(O2)C(=O)C(=O)N2CCCC[C@H]2C(=O)O[C@H]([C@H](C)C[C@@H]2CC[C@H](n3cnnn3)[C@H](OC)C2)CC(=O)[C@H](C)/C=C(\C)[C@@H](O)[C@@H](OC)C(=O)[C@H](C)C[C@H](C)/C=C/C=C/C=C/1C` [Zotarolimus], the IC50 in the test on human fibroblasts lay within 0.1 to 10 nM. Regarding `Nc1nc(Cl)nc2c1ncn2[C@H]1C[C@H](O)[C@@H](CO)O1` [cladribine, 2-Chloro-2-deoxyadenosine], the IC50 with Smooth muscle cells (72 hours, CYQUANT) amounted to 137 nM. As for `C=C1[C@@H](C)[C@H]2[C@H](Cc3ccccc3)NC(=O)[C@]23OC(=O)/C=C/C(=O)CCC[C@@H](C)C/C=C/[C@H]3[C@@H]1O` [cytochalasin A], the IC50 in the test on Smooth muscle cells (72 hours, CYQUANT) worked out at 221 nM. Turning to `C/C1=C/C[C@@H](/C(C)=C/c2csc(C)n2)OC(=O)C[C@H](O)C(C)(C)C(=O)[C@H](C)[C@@H](O)[C@@H](C)CCC1` [epothilone D], the figures for the IC50 with human fibroblasts and with Smooth muscle cells (72 h) were 10 to 100 nM and 5 nM, respectively. As to `CC(=O)[C@]1(O)Cc2c(O)c3c(c(O)c2[C@@H](O[C@H]2C[C@H](N)[C@H](O)[C@H](C)O2)C1)C(=O)c1ccccc1C3=O` [idarubicin], the IC50 with Smooth muscle cells (72 hours, CYQUANT) came out at 38 nM. For `CCC(C)n1ncn(-c2ccc(N3CCN(c4ccc(OCC5COC(Cn6cncn6)(c6ccc(Cl)cc6Cl)O5)cc4)CC3)cc2)c1=O` (stereo not drawn) [itraconazole], the IC50 in the test on Smooth muscle cells (72 hours, CYQUANT) is 795 nM.

`CC[C@H](C)C(=O)O[C@H]1C[C@@H](C)C=C2C=C[C@H](C)[C@H](CC[C@@H]3C[C@@H](O)CC(=O)O3)[C@H]21` [lovastatin]: the IC50 with Smooth muscle cells (72 hours, CYQUANT) worked out at 978 nM.

As to `CO[C@@]12[C@H](COC(N)=O)C3=C(C(=O)C(C)=C(N)C3=O)N1C[C@@H]1N[C@@H]12` [mitomycin C], the IC50 in the test with Smooth muscle cells (72 hours, CYQUANT) amounted to 53 nM.

`COC(=O)[C@@H]1c2cc3c(c(O)c2[C@@H](O[C@@H]2O[C@@H](C)[C@H](OC)[C@@](C)(OC)[C@H]2OC)C[C@]1(C)O)C(=O)c1c(O)cc2c(c1C3=O)O[C@@H]1O[C@@]2(C)[C@H](O)[C@@H](N(C)C)[C@@H]1O` [nogalamycin]: the IC50 in the test with Smooth muscle cells (72 hours, CYQUANT) amounted to 49 nM.
